Data on one molecule can be found in patent US20140315889A1, “HYDROXAMATE DERIVATIVES FOR HDAC INHIBITOR, AND THE PHARMACEUTICAL COMPOSITION COMPRISING THEREOF” (CHONG KUN DANG PHARMACEUTICAL CORP., priority 2011, published 2014).

The structures appear in SMILES notation. pIC50: −log10 of the molar value. Where two headings read alike, the source gives them in different places.

Holding throughout (format): biochemical
Assay [1] has as its target T1, Human recombinant HDAC1 (Homo sapiens, UniProt Q13547).
T1 construct: purchased Enzo Life Science Co. (named for the kit; assigned to the enzyme from the BML- catalogue prefix) BML-SE456
Put plainly: HDAC enzyme activity test, HDAC1. The procedure: (§1) Then, 0.3 μg of enzyme and 10 μM of substrate per well were added, reacted at 30° C. for 60 minutes. Thereto, Fluor de Lys® Developer II (BML-KI176) was added and reacted for 30 minutes. […] From the data, the respective IC50 were calculated by GraphPad Prism 4.0 program.

The target of assay [2] is T2, human recombinant HDAC6 (Homo sapiens, UniProt Q9UBN7).
T2 construct: purchased Calibiochem Co. (so in the source) 382180
T2 sequence (Q9UBN7 1-1215): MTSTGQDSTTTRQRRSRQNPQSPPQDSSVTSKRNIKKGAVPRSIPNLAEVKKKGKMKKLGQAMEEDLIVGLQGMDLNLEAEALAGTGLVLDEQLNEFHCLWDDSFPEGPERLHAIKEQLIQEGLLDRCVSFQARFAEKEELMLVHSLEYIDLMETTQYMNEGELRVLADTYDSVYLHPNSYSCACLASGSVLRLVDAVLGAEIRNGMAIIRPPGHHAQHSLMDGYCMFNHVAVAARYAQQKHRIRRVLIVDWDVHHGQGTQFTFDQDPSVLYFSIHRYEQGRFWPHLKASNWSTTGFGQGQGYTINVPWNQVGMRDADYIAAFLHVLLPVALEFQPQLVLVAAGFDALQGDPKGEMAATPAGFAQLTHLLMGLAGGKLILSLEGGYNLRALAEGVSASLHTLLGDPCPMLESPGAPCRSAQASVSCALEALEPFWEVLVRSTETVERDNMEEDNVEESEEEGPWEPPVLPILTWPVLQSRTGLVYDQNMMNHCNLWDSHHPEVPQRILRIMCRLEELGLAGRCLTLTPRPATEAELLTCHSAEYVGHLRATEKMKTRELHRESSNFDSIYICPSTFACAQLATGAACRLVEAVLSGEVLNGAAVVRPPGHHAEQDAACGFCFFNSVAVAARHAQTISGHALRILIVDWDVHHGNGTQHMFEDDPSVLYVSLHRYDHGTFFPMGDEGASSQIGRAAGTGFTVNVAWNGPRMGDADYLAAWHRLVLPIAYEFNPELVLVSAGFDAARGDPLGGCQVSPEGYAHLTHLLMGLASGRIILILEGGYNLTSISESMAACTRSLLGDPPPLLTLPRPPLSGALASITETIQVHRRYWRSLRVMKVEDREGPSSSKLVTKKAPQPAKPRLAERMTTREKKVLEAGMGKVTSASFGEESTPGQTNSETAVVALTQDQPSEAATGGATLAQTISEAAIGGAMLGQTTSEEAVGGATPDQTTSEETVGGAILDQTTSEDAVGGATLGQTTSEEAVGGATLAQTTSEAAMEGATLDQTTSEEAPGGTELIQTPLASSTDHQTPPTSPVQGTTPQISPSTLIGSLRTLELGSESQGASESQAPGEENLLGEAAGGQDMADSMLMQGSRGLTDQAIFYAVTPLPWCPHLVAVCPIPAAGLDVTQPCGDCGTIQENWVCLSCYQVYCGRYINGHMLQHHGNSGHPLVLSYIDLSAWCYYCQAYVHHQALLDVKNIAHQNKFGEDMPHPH
Nature of the assay: HDAC enzyme activity test, HDAC6. The procedure:
as §1

Assay [3] addresses T3, HDAC8 (Homo sapiens, UniProt Q9BY41).
T3 sequence (Q9BY41 1-377): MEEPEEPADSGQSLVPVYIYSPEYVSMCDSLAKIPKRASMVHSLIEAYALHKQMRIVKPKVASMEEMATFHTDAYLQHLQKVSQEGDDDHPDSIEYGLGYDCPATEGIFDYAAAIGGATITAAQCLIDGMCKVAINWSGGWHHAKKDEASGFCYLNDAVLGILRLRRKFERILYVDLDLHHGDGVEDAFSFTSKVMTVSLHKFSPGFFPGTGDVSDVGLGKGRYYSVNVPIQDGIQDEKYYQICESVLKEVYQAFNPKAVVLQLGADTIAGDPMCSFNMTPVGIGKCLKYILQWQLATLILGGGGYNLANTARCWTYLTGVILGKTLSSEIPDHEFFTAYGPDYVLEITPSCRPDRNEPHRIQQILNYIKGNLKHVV
Put plainly: HDAC enzyme activity test, HDAC8. Conditions: Table 11, eleven HDAC isozymes; read-out: Inhibition ability (IC50) against HDAC8. The procedure:
as §1

The target in assay [4] is HDAC9 (Homo sapiens, UniProt Q9UKV0). Put plainly: HDAC enzyme activity test, HDAC9. As to conditions: Table 11, eleven HDAC isozymes; read-out: Inhibition ability (IC50) against HDAC9. The procedure:
as §1

Assay [5] has as its target T4, HDAC11 (Homo sapiens, UniProt Q96DB2).
T4 sequence (Q96DB2 1-347): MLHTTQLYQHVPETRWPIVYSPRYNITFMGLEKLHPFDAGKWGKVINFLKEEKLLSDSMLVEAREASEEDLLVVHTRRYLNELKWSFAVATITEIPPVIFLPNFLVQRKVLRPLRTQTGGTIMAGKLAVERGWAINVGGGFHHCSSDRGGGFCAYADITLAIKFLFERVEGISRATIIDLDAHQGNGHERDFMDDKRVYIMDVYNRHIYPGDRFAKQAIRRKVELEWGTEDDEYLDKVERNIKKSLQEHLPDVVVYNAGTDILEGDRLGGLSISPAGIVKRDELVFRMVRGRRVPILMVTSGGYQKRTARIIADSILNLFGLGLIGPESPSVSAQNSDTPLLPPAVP
Put plainly: HDAC enzyme activity test, HDAC11. As to conditions: Table 11, eleven HDAC isozymes; read-out: Inhibition ability (IC50) against HDAC11. As for the experimental part: as §1

T1 sequence (Q13547 whole entry): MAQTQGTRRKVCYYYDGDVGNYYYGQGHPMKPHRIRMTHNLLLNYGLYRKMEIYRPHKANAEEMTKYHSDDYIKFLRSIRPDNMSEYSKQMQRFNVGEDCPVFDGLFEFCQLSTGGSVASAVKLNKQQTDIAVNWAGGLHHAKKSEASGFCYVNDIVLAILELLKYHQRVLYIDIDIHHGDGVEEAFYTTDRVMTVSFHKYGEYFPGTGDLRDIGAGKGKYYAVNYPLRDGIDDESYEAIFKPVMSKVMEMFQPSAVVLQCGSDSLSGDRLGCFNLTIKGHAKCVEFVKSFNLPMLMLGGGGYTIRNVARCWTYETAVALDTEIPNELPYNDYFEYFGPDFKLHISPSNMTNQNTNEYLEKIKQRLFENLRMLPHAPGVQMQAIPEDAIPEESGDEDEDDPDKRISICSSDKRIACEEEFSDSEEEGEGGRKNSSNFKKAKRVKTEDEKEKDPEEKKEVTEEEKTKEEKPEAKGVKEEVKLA
Chain of HDAC9 (Q9UKV0 whole entry, species assumed): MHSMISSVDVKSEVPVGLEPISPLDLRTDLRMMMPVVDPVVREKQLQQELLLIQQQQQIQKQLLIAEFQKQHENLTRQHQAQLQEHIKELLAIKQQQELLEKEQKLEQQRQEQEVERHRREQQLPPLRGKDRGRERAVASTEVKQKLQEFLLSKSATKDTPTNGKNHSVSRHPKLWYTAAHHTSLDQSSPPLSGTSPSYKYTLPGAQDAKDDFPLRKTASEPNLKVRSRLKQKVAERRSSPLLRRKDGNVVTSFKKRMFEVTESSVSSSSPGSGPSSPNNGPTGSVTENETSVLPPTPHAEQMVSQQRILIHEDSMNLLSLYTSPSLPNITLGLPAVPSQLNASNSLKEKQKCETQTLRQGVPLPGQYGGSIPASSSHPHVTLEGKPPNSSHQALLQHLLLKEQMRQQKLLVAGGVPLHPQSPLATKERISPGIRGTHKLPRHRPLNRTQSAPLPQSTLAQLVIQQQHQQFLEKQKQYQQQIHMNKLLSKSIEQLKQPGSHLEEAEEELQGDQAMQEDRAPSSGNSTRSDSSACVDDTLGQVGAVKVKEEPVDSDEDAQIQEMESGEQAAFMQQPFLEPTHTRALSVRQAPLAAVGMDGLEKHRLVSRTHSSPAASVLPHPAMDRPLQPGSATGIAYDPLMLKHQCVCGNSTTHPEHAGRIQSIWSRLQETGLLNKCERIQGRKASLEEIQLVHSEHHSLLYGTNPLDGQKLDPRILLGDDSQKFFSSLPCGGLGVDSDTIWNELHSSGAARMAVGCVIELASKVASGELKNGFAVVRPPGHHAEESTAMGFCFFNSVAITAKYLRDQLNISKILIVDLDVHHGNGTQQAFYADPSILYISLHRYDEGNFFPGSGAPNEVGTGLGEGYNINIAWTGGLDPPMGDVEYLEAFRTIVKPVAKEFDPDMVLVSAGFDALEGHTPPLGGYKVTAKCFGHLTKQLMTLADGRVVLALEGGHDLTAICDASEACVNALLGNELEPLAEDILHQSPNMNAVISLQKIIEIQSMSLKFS

In the case of `CC1(C)CC(=O)c2c(n(Cc3ccc(C(=O)NO)cc3)c3ccccc23)C1` [Compound 19, 4-((2,2-dimethyl-4-oxo-1,2,3,4-tetrahydrocarbazol-9-yl)methyl)-N-hydroxybenzamide], the pIC50 – broadly, −log10 of the IC50, conventionally taken in molar units – was 4.74 in assay [1] (Table 11, eleven HDAC isozymes, read-out: Inhibition ability (IC50) against HDAC1); 5.37 in assay [1] (Table 12, read-out: Inhibition ability (IC50) HDAC1); 7.45 in assay [2] (Table 11, eleven HDAC isozymes, read-out: Inhibition ability (IC50) against HDAC6); 7.68 in assay [2] (Table 12, read-out: Inhibition ability (IC50) HDAC6); 6.10 in assay [3]; 4.52 in assay [4]. Moreover, the negative logarithm of the IC50 (pIC50) in assay [5] was 4.65. The “Selectivity for HDAC6, HD1/HD6” value in assay [2] (Table 12, ratio HDAC1 IC50 / HDAC6 IC50) stood at 201.8.
